The values that follow come from PubChem BioAssay AID1197 (NMMLSC, 2008).

Activity calls are given as the source filed them. The rule behind the calls is not given here.

Test system in one test: not listed separately
Nature of the test: cytotoxicity in LNCaP prostate cancer cells – cell-based, flow cytometry, event count, cytotoxicity control for prostate cell differentiation activator project, dose response (AID 1197). As to conditions: LNCaP cell loss, flow cytometry event count, 4 d; at 30 µM (top of the series).
On to `O=C(CCN1C(=O)COc2ccccc21)NCCCN1CCN(c2ccc(F)cc2)CC1`, for which the event count (lower = more killing) is 279% (inactive). The same measure, in the same setting: under `CN(CCNC(=O)C1CC(=O)N(c2ccc(F)c(Cl)c2)C1)Cc1ccccc1` (stereo not drawn) stands 343% (inactive); under `COc1ccc(CCn2c(=N)c(C(=O)NCc3ccco3)cc3c(=O)n4ccccc4nc32)cc1`, 37.8% (inactive). Same read-out and setting: for `CCN(CC)CCCNC(=O)c1cc2c(-c3ccc(Cl)cc3)nn(C)c2s1` the value was 22.2% (inactive). For `COC(=O)c1cc(-c2ccccc2)sc1NC(=O)c1cc(C)on1`, the event count (lower = more killing) was 394% (inactive). Same read-out and setting: under `CCN1CCN(c2ncc(C(=O)Nc3cc(Cl)c(OC)cc3OC)c3ccccc23)CC1` stands 208% (inactive); under `CCOc1ccccc1NC(=O)c1nc[nH]c1C(=O)Nc1ccccc1OCC`, 257% (inactive); under `COc1ccccc1NC(=O)c1nc[nH]c1C(=O)Nc1ccccc1OC`, 87.2% (inactive). Take `Cc1ccccc1-c1nc(CN2CCC(C(=O)NCCCN3CCCC3)CC2)c(C)o1`: the event count (lower = more killing) is 76.5% (inactive).

On to `CCCS(=O)(=O)N1CCCC(C(=O)NCCCN2CCN(c3ccc(F)cc3)CC2)C1` (stereo not drawn), for which the event count (lower = more killing) was 238% (inactive). The same measure, in the same setting: under `CC1CCCCN1CCNC(=O)c1cc2c(-c3ccccc3F)nn(C)c2s1` (stereo not drawn) stands 103% (inactive); under `Cc1cc(C)nc(N2CCC(C(=O)Nc3ccc(Oc4ccccc4)cc3)CC2)n1`, 170% (inactive). Same read-out and setting: for `Cc1ccc(Nc2cc(=O)n(C3CCCCC3)c(=O)[nH]2)cc1C` the value was 55.5% (inactive); for `Clc1ccc(COC(Cn2ccnc2)c2ccc(Cl)cc2Cl)cc1` (stereo not drawn), 223% (inactive). On the same count and under the same terms, for `CN(CC(O)COc1ccc(OCC(O)CN(C)C2CCCCC2)cc1)C1CCCCC1` (stereo not drawn) the value was 126% (inactive); for `Cc1ccc2c(c1)-c1c(cnn1CC(=O)Nc1ccccc1N1CCN(C)CC1)CO2`, 163% (inactive); for `O=C(c1ccccc1)c1ccc(N2CCNCC2)cc1`, 236% (inactive). Consider `O=C(Cn1cc2c(n1)CCCC2)NCCCN1CCN(c2ccccc2F)CC1`, for which the event count (lower = more killing) is 333% (inactive). As for `CCN1CCN(CCNC(=O)C2CCN(Cc3nc(-c4ccc(Cl)cc4)oc3C)CC2)CC1`, the event count (lower = more killing) was 83.2% (inactive). Same read-out and setting: for `Cc1ccc(C)c(N2CCN(CCCNC(=O)Cn3cc4c(n3)CCCCC4)CC2)c1` the value was 71.8% (inactive); for `Cn1c(=O)cc(SCC(=O)NCCCN2CCN(c3ccccc3F)CC2)c2ccccc21`, 258% (inactive). Still for that read-out and setting: for `COc1cc2nc(N3CCN(C(=O)C4COc5ccccc5O4)CC3)nc(N)c2cc1OC` (stereo not drawn) the value was 104% (inactive); for `Cc1oc(-c2ccc(Cl)cc2)nc1CN1CCC(C(=O)N2CCN(Cc3ccccc3)CC2)CC1`, 91.8% (inactive). Still for that read-out and setting: for `CCOC(=O)c1ccccc1NC(=O)Cn1c(-c2nonc2N)nc2ccccc21` the value was 116% (inactive); for `Cc1ccccc1-c1nc(CN2CCC(C(=O)NCc3cccnc3)CC2)c(C)o1`, 295% (inactive). As to `Cc1ccccc1-c1nc(CN2CCC(C(=O)NCCCN3CC(C)CC(C)C3)CC2)c(C)o1` (stereo not drawn), the event count (lower = more killing) was 108% (inactive). Still for that read-out and setting: for `CCn1c(=O)cc(SCC(=O)NCCCN2CCN(c3ccccc3F)CC2)c2ccccc21` the value was 210% (inactive); for `CCN1CCCC1CNC(=O)c1cc2c(-c3ccc(Cl)cc3)nn(C)c2s1` (stereo not drawn), 27.8% (inactive); for `CC1CCCCN1CCNC(=O)c1ccc2c(=O)n(CCc3ccccc3)c(=O)[nH]c2c1` (stereo not drawn), 191% (inactive). Consider `CN1CCN(c2cc3c(c4c2[nH]c2ccccc24)C(=O)CC(C)(C)C3)CC1`, for which the event count (lower = more killing) is 48.8% (inactive). As to `CN(C)CCCN1c2ccccc2CCc2ccc(Cl)cc21`, the event count (lower = more killing) is 32.2% (inactive). Still for that read-out and setting: under `CCn1c(=O)cc(SCC(=O)NCCN2CCN(Cc3ccccc3)CC2)c2ccccc21` stands 306% (inactive); under `COc1ccc(Cc2nc(-c3ccc(-n4cccc4)cc3)no2)cc1OC`, 104% (inactive); under `Cc1cc(N2CCN(C)CC2)nc2ccc(NC(=O)c3ccc4c(c3)OCO4)cc12`, 80.5% (inactive). On the same count and under the same terms, under `CCN1CCN(C(c2cccs2)C(C)NS(=O)(=O)c2ccc(Br)cc2)CC1` (stereo not drawn) stands 282% (inactive); under `Cc1cc(N2CCN(C)CC2)nc2ccc(NC(=O)c3ccc(Br)o3)cc12`, 422% (inactive). The same measure, in the same setting: for `CCCc1cc(-c2n[nH]c(C)c2-c2ccc(C(=O)OCC)o2)c(O)cc1O` the value was 98.2% (inactive); for `CCN(CC)CC(=O)Nc1ccc(-c2nc3cc(NC(=O)CN(CC)CC)ccc3o2)cc1`, 98.5% (inactive). On to `Cn1c(C(=O)NCCCN2CCN(c3cccc(Cl)c3)CC2)cc2c(=O)n(C)c3ccccc3c21`, for which the event count (lower = more killing) was 137% (inactive). For the compound `CN(C)c1ccc(CNC2CC(C)(C)NC(C)(C)C2)cc1`, the event count (lower = more killing) is 284% (inactive).

Turning to `Cn1c(=O)[nH]c(=O)c2c1nc(Br)n2CCCSc1nc2ccccc2o1`, the event count (lower = more killing) is 150% (inactive). In the case of `Nc1ccc(-n2ccnc2)cc1`, the event count (lower = more killing) was 282% (inactive). Turning to `O=S1(=O)C=C(Sc2nc3ccccc3s2)c2ccccc21`, the event count (lower = more killing) is 150% (inactive). `Oc1c(CN2CCCCC2)cc(COCc2ccccc2)c2cccnc12`: the event count (lower = more killing) is 137% (inactive). The same measure, in the same setting: for `Cc1cccc(-c2nsc(SCC(=O)Nc3nccs3)n2)c1` the value was 296% (inactive); for `COc1ccc(-c2ccc(-c3noc(-c4ccccc4)n3)c(OC)n2)cc1`, 153% (inactive). With `CC(C)(C)c1ccc(C(O)CCCN2CCC(C(O)(c3ccccc3)c3ccccc3)CC2)cc1` (stereo not drawn), the event count (lower = more killing) was 23.5% (inactive). On the same count and under the same terms, under `Cc1nc2ncnn2c(C)c1CCC(=O)NCCCN1CCN(c2cccc(Cl)c2)CC1` stands 374% (inactive); under `CCn1c(=N)n(CC(O)COc2cccc(C)c2)c2ccccc21` (stereo not drawn), 275% (inactive); under `CCOC(=O)c1c(C)n(C)c2ccc(OCC(O)CNC(CC)CO)cc12` (stereo not drawn), 115% (inactive). Same read-out and setting: under `CCOc1cccc2cc(-c3cn4cc(C)ccc4n3)c(=O)oc12` stands 76.2% (inactive); under `CCCOc1ccccc1C1CC(=O)Nc2cc3c(cc21)OCO3` (stereo not drawn), 21.8% (inactive); under `COc1ccc(N2CCN(CCCNC(=O)CC3Oc4ccc(C)cc4NC3=O)CC2)cc1` (stereo not drawn), 343% (inactive).

Turning to `O=C(NCCCN1CCN(c2cccc(Cl)c2)CC1)c1cccc(N2CCCC2=O)c1`, the event count (lower = more killing) was 305% (inactive). Still for that read-out and setting: under `CCOc1ccc(NC(=O)COc2nsnc2N2CCCCC2)cc1` stands 160% (inactive); under `CCN(CC)CCNC(=O)c1cc2c(-c3ccc(Cl)cc3)nn(C)c2s1`, 140% (inactive). The same measure, in the same setting: under `CCN(CC)CCNC(=O)c1ccc(N2CCCCC2)c(NS(=O)(=O)c2ccc(C)cc2)c1` stands 70.8% (inactive); under `Cc1ccccc1-c1nc(CN2CCCC(C(=O)NCCCN3CCOCC3)C2)c(C)o1` (stereo not drawn), 187% (inactive).

As for `COc1ccc(N2CCN(CCCNC(=O)CCCn3c(=O)[nH]c4ccsc4c3=O)CC2)cc1`, the event count (lower = more killing) was 175% (inactive). Same read-out and setting: under `C[C@H]1CCC/C=C/C2C[C@H](O)CC2[C@H](O)/C=C/C(=O)O1` (stereo partly drawn) stands 12.8% (inactive); under `Cc1ccc(CNc2nc3ccccc3n3nnnc23)cc1`, 128% (inactive); under `O=C(NCCCN1CCN(c2ccc(F)cc2)CC1)c1cccc(N2CCCC2=O)c1`, 191% (inactive).

On to `O=c1cc(-c2ccccc2)[nH]c2ccccc12`, for which the event count (lower = more killing) was 83.8% (inactive). On the same count and under the same terms, for `Cc1ccc(Cl)cc1N1CCN(C(=O)c2cc3c(=O)n(C)c4ccccc4c3n2C)CC1` the value was 26.8% (inactive). Still for that read-out and setting: under `COc1ccc(N2CCN(CCCNC(=O)c3cc4sccc4n3C)CC2)cc1` stands 282% (inactive); under `CCN1CCN(c2cc(C)c3cc(NC(=O)c4ccc(Br)o4)ccc3n2)CC1`, 55.2% (inactive). Same read-out and setting: for `Cc1ccccc1-c1nc(CN2CCC(C(=O)NCCCN3CCOCC3)CC2)c(C)o1` the value was 109% (inactive).

The subject of a further test is LNCaP cell loss, flow cytometry event count, 4 d. The description is as above.
Details: not given
As to `Cc1cc2c(=O)n(CC(=O)N3CCN(c4ccccc4)CC3)cnc2s1`, the concentration for a half-maximal effect (EC50) is 1.61 µM. As to `Cc1noc(/C=C/c2ccco2)c1S(=O)(=O)N1CCC(C(=O)N2CCc3ccccc3C2)CC1`, the 50% effective concentration (EC50) is 4.53 µM. The same measure, in the same setting: for `CCCN(CCC)CCNC(=O)C1CCN(Cc2nc(-c3ccc(Cl)cc3)oc2C)CC1` the value was 15.7 µM (inactive). For `COc1ccccc1N1CCN(c2nc3ccccc3nc2C(C#N)C(=O)OC(C)C)CC1` (stereo not drawn), the 50% effective concentration (EC50) is 2.77 µM. On the same count and under the same terms, under `CCc1ccc(-c2nc(CN3CCC(C(=O)NCc4ccc(F)cc4)CC3)c(C)o2)cc1` stands 5.17 µM; under `COc1ccc(-c2oc3ncn(CCN4CCOCC4)c(=N)c3c2-c2ccc(OC)cc2)cc1`, 0.198 µM; under `COc1ccc(Nc2nc(N)nc(CN3CCC(Cc4ccccc4)CC3)n2)cc1`, 17 µM (inactive). For the compound `Cn1nc(-c2ccc(Cl)cc2)c2cc(C(=O)NCCCN3CCOCC3)sc21`, the EC50 was 14.5 µM (inactive).

For the compound `COc1ccccc1N1CCN(Cc2cc(Br)c(O)c3ncccc23)CC1`, the EC50 was 0.351 µM.

In the case of `N=c1n(CCN2CCCCC2)c2ccccc2n1CC(O)COc1ccccc1` (stereo not drawn), the EC50 is 19.2 µM (inactive).

Regarding `COc1ccc(-c2noc(-c3cc(Cl)ccc3Cl)n2)cc1OC`, the 50% effective concentration (EC50) is 4.83 µM.
